Molecular target: SARS-CoV-2 3CLpro (Severe acute respiratory syndrome coronavirus 2, UniProt P0DTD1)
Assay: biochemical
Conditions: for inhibition at 50 µM: single point, 50 μM compound

Row | Compound | IC50 [µM] | inhibition at 50 µM [%]
1 | CCOc1ccc(NC(=O)C(CC(C)C)NC(=O)C2CCC(C)CC2)cc1 (stereo not drawn) [Compound 34] | 6.12 ± 0.42 | 78.3
2 | CC[C@H](C)N(Cc1cccc(OC)c1)C[C@@H](O)COc1ccc(OC)cc1 [Compound 1] | 8.98 ± 0.57 | 85.4
3 | COc1cc(-c2nc3cnccn3c2Nc2cccc(Cl)c2)ccc1O [Compound 10] | 9.08 ± 0.56 | 78
4 | CC[C@H](C)[C@H](NC(=O)c1ccc2nc(-n3cccc3)sc2c1)C(=O)NCc1cccnc1 [Compound 5] | 8.5 ± 0.26 | 84
5 | CCC(CC)C(=O)Nc1cccc(C(=O)Nc2ccccc2C(=O)Nc2ccc(OC)cc2)c1 [Compound 43] | 6.99 ± 0.62 | 84.8
6 | COc1ccc(NC(=O)c2ccccc2NC(=O)c2ccc([N+](=O)[O-])c(C)c2)cc1 [Compound 36] | 4.47 ± 0.39 | 81.9
